From US9821070B2 (OPKO Biologics Ltd., priority 2012, dated 2017)

Assays:
[1] = Obese (ob/ob) mouse model, Study 2 (MOD-6031 chronic pharmacology); assay type: in vivo, male ob/ob mice; conditions: OXM 6000 nmoles/kg bid sc for 32 days
Description: Body weight, food and water intake were recorded daily. […] Body weight, food and water intake were measured daily.
Oral glucose tolerant test (OGTT) studies were performed on days 2 and day 30 (FIGS. 10 and 11, respectively).

GLP-1 receptor = GLP-1 receptor (Homo sapiens, UniProt P43220); conditions: cAMP Hunter CHO-K1 GLP1R
Chain of GLP-1 receptor (P43220 24-463): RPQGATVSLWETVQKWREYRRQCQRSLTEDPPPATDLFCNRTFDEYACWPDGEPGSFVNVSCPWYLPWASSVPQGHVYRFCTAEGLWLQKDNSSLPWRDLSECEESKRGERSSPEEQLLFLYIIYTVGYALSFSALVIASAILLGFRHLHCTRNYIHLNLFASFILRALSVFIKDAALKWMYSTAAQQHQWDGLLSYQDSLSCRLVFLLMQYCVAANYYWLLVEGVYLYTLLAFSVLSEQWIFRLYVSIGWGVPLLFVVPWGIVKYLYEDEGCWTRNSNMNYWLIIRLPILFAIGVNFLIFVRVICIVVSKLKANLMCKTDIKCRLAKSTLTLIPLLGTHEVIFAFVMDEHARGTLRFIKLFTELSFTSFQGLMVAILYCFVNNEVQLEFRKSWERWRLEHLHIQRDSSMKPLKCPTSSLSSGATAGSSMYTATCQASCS
Description: Cells cAMP concentrations were quantified by HTRF assay (Cisbio 62AM4PEB) and EC50 parameter was analyzed by PRISM software. The cAMP Hunter™ CHO-K1 GLP1R secretes cAMP upon binding of the ligand to the receptor. […] Ligands were diluted in diluent contains IBMX and were added in duplicate to the culture wells for 30 min at 37° C. with 5% CO2. […] The dose dependent curves were established and the binding affinities (EC50) of various ligands were calculated using PRISM software by applying the best fit dose response model (Four parameters).

Oxyntomodulin [OXM]
body weight reduction over the study [1]: 10.3%
higher GLP-1 receptor binding activation compared to the heterogeneous PEG30-FMS-OXM (GLP-1 receptor): 5.9 fold
